Results taken from paper PMC4153677, “Probing the Activity Modification Space of the Cysteine Peptidase Cathepsin K with Novel Allosteric Modifiers” (PLoS ONE, 2014).

Columns and labels:
Type in all cases: biochemical
[1] = target: T1, Recombinant human cathepsin K (Homo sapiens, UniProt P43235); test: Kinetic measurements, hydrolysis of the fluorogenic substrate Z-FR↓AMC (general modifier mechanism); set-up: key to α (coefficient, effect of modifier on the affinity for the substrate) / β (coefficient, effect of modifier on the catalytic rate): dimensionless coefficients multiplying KS (α) and kcat (β); details: for Z-FRAMC: geometric mean of residual activities (vA): at 0.1×Km and 10×Km substrate, modifier 10×KA, calculated with Equation 1 from α and β of Table 3, unmodified enzyme = 1.00; for Kinetic mechanism of modification / α (coefficient, effect of modifier on the affinity for the substrate) / β (coefficient, effect of modifier on the catalytic rate) / Kd: substrate Z-FR↓AMC; for Kinetic mechanism of modification: from combinations of α and β; for α (coefficient, effect of modifier on the affinity for the substrate) / β (coefficient, effect of modifier on the catalytic rate) / Kd: pH 5.50, 25°C, 0.5 nM enzyme; for Kd: read-out: K A (equilibrium dissociation constant of the EA complex)
T1 construct: made in house
T1 sequence (P43235 115-329): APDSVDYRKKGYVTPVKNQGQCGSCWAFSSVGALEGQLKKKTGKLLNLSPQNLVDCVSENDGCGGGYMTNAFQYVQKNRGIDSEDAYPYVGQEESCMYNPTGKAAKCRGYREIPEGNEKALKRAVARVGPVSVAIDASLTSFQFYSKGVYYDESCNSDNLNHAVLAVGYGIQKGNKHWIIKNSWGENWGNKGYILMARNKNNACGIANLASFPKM
Description: All modifiers were tested for their effect on the hydrolysis of the low molecular mass synthetic substrate Z-FR↓AMC. Since all progress curves were linear from the beginning of the reaction, initial velocities were calculated from the slopes by linear regression. […] The basic mechanism considered for the analysis of the interactions was the general modifier mechanism shown in Figure 2, in which the effect of modifier is determined by the values of the coefficients α and β that multiply the kinetic parameters K S, K A (α) and k cat (β). In the thermodynamic box embodied in Figure 2, the reciprocal of the coefficient α represents the allosteric coupling constant that characterizes energy linkage between the modifier and the substrate, while a […] represents the effect exerted by the modifier on catalysis. The specific velocity plot was used for the primary screening of the kinetic behavior of the modifiers (Equation 2), as it allows an immediate judgment of the type of interaction and to gather preliminary estimates of the coefficients α and β, as well as of the dissociation constant of the modifier. Refinement was then performed by fitting the rate Equation 1 to data.
Figure 3 Kinetic mechanisms of the identified modifiers. All compounds were characterized by a combination of specific velocity plots (upper panels) and titration curves recorded at fixed substrate concentrations (lower panels). All experiments were performed at 25±1°C in 100 mM sodium acetate buffer pH 5.50 containing 1 mM EDTA and 2.5 mM DTT using the fluorogenic substrate Z-FR↓AMC and at a final enzyme concentration of 0.5 nM.
All kinetic measurements were performed in 100 mM sodium acetate buffer pH 5.50 containing 1 mM EDTA and 2.5 mM dithiothreitol (DTT) in single-use acrylic cuvettes (1×1 cm) thermostatted at 25±1°C with magnetic stirring. The hydrolysis of Z-FR↓AMC was followed fluorometrically at λex 383 nm and λem 455 nm. All tested modifiers were analyzed spectroscopically to determine their absorption properties under the conditions used in the assays. When necessary, appropriate corrections were made to the calculated reaction rates to take into account the inner filter effect.
The effects of the modifiers on enzymatic activity were analyzed with the general modifier mechanism which describes the interaction between enzyme (E), substrate (S) and modifier (A), as shown in Figure 2. Assuming that binding of A to E and ES is at quasi-equilibrium and that steady-state conditions are established in the fluxes around ES and ESA (i.e. the catalytic steps), the reaction rate for the mechanism in Figure 2 is defined by Equation 1: [drawing 2] (1) where v 0 is the reaction rate in the absence of modifier, K A is the equilibrium dissociation constant of the EA complex, α and β are dimensionless coefficients and σ = [S]/K m, approximated to [S]/K s. To determine the mechanism of interaction, plot the kinetic data and calculate preliminary values of the interaction parameters, the specific velocity plot was used. For this purpose, Equation 1 is rewritten as:
The plot of v 0/v A versus σ/(1+σ) produces straight lines with intersection points at v 0/v A = 1, regardless of the interaction mechanism. The parameters α, β and K A are determined by replotting the extrapolated values of the straight lines at σ/(1+σ) = 0 (a) and σ/(1+σ) = 1 (b) versus 1/[A] in the form: [drawing 4] (3) [drawing 5] (4)

[2] = target: T1, Recombinant human cathepsin K; test: Collagenolytic assays (calf skin collagen, SDS-PAGE); set-up: key to collagen: qualitative value: qualitative values of 1 and 0 were used to signify inhibition and lack thereof, respectively; qualitative values of 1 and 0 were used to signify inhibition and lack thereof, respectively; a value of -1 was used to describe the concentration-dependent roles of glycosaminoglycans; details: for collagen: qualitative value: activity modification matrix
Description: The use of synthetic substrates is practical for the determination of the mechanisms of modification. […] Therefore, all modifiers were also tested with two macromolecular substrates, calf skin collagen and azocasein. The collagenolytic activity was tested quantitatively by following the fragmentation of the characteristic type I collagen pattern into smaller products on SDS-PAGE after incubation of the samples with cathepsin K in the presence and absence of modifiers.
Soluble calf skin collagen (Worthington Biochemical Corporation, USA) was diluted in 100 mM sodium acetate buffer pH 5.50 containing 1 mM EDTA and 5 mM DTT to a final concentration of 0.5 mg/ml. Experiments were started by addition of cathepsin K (final enzyme concentration 0.6 µM) to the reaction mixture containing collagen and increasing concentrations of modifier. All assays were performed at 28°C with shaking on an Eppendorf Thermomixer Comfort. Samples were incubated for 2 hours and the reactions then blocked by addition of E-64 to a final concentration of 1 µM. 10 µg of digested collagen were analyzed by SDS-PAGE on 8% polyacrylamide gels and protein bands visualized by Coomassie Brilliant Blue R-250 staining.

[3] = target: T1, Recombinant human cathepsin K; test: Thermal stability of cathepsin K at pH 7.4 in the presence of modifiers; details: for stability: ln(sf), sf = ratio of half-lives in the presence and absence of modifier: 37 °C and pH 7.4
Description: Cathepsin K was incubated at 37°C in 50 mM Hepes buffer pH 7.40 containing 1 mM EDTA and 5 mM DTT in the presence or absence of each modifier. The final enzyme concentration was 0.2 µM and final compounds concentrations were 2 mM, except compound 2, which was used at a concentration of 1 mM. All experiments were performed in Eppendorf Protein LoBind Tubes to minimize the adsorption of proteins on tube walls. Aliquots were withdrawn from the reaction mixtures at regular time intervals and their residual activity measured using the substrate Z-FR↓AMC (5 µM final concentration). Inactivation curves had exponential profiles that were fitted with the mathematical model for one-phase exponential decay to determine the half-life of the enzyme in each reaction mixture.

[4] = target: T1, Recombinant human cathepsin K; test: Azocasein degradation assays; details: for Effect on azocasein degradation / remaining activity: compounds up to 2 mM (compound 2: 1 mM); for remaining activity: pH 5.5, substrate azocasein 3 mg/ml, 0.1 µM cathepsin K, 30 min 37°C, pH 5.50, read-out: Residual activity; for azocasein: fraction of residual enzyme activity: value of 1 equals the activity of unmodified enzyme, activity modification matrix; for IC 50 relative to K A: azocasein IC50 versus K A with Z-FR↓AMC; for IC50: azocasein degradation
Excerpt: Figure 4 Effect of modifiers on the degradation of macromolecular substrates. (A) Effect of increasing concentrations of compounds 1 and 2 on the degradation of calf skin collagen. Molecular mass standards are given in kDa and positions of α, β and γ chains of intact collagen are marked by arrows. (B) Effect of modifiers on azocasein degradation. (C) Effect of glycosaminoglycans and clusterin on azocasein degradation. Two different concentrations of each glycosaminoglycan were used in the experiments (10 µg/ml and 200 µg/ml). Error bars in panels B and C represent the SEM of three experiments. All experiments were performed in 100 mM sodium acetate buffer pH 5.50 containing 1 mM EDTA and 5 mM DTT, as described in detail in the Materials and Methods section. Abbreviations: CPD – compound, CS – chondroitin sulfate, DS – dermatan sulfate, HP – heparin.
Azocasein (Sigma-Aldrich, USA) was dissolved in 100 mM sodium acetate buffer pH 5.50 containing 1 mM EDTA and 5 mM DTT at a concentration of 3 mg/ml. Samples were incubated with 0.1 µM cathepsin K for 30 min at 37°C in the presence of each compound. […] Reactions were stopped by addition of trichloroacetic acid (final concentration 5% v/v), centrifuged, clear supernatants mixed with 0.5 M NaOH and the concentrations of solubilized peptides determined by measuring the absorbance at 440 nm. All experiments were performed in triplicates and appropriate blanks were run to take into account the absorption of azocasein and compounds alone. IC 50 values were determined as described previously.

[5] = substrate calf skin collagen 0.5 mg/ml, 0.6 µM cathepsin K, 2 hours 28°C, pH 5.50, estimated

| SMILES | Z-FRAMC: geometric mean of residual activities (vA) [1] | Kinetic mechanism of modification [1] | α (coefficient, effect of modifier on the affinity for the substrate) [1] | β (coefficient, effect of modifier on the catalytic rate) [1] | Kd [1] [µM] | collagen: qualitative value [2] | IC50 [2, 5] | stability: ln(sf), sf = ratio of half-lives in the presence and absence of modifier [3] | Effect on azocasein degradation [4] | remaining activity [4] [%] | azocasein: fraction of residual enzyme activity [4] | IC 50 relative to K A [4] | IC50 [4] [µM] | further results |
| --- | --- | --- | --- | --- | --- | --- | --- | --- | --- | --- | --- | --- | --- | --- |
| O=C(O)c1ccccc1C(=O)Nc1cccc([N+](=O)[O-])c1 [Compound 7, 2-[(3-Nitrophenyl)carbamoyl]benzoic acid] | 0.48 | hyperbolic mixed inhibitors with uncompetitive character | 0.19±0.03 | 0.19±0.03 | 290 ± 20 | 0 | n.i. | 0.47 | ineffective | 104 ± 5 | 1.01 |  |  | α (coefficient, effect of modifier on the affinity for the substrate) ([1]; listed as compound 7): < 1; β (coefficient, effect of modifier on the catalytic rate) ([1]; listed as compound 7): < 1 |
| Nc1cc(C(=O)O)ccc1NCC1CCCO1 (stereo not drawn) [Compound 1, 3-Amino-4-[(tetrahydro-2-furanylmethyl)amino] benzoic acid] | 0.37 |  |  | 0.55±0.25 | 190 ± 20 | 1 |  | 0.74 |  | 74 ± 9 | 0.74 | about 4 fold | 730 ± 190 | Effect on degradation of calf skin collagen ([2]; SDS-PAGE, increasing concentrations of modifier): concentration-dependent inhibitory effect; IC50 ([2]; degradation of calf skin collagen, read-out: IC 50 (estimated)): ~1 mM; IC50 ([2]; substrate calf skin collagen 0.5 mg/ml, 0.6 µM cathepsin K, 2 hours 28°C, pH 5.50, estimated, read-out: IC 50): 1 mM; Increase of stability (half-life) of cathepsin K ([3]; pH 7.4, 37°C, versus enzyme only): about 2 fold |
| COC(=O)CNC1CC(=O)N(c2ccc(OC)cc2)C1=O (stereo not drawn) [Compound 8, Methyl N-[1-(4-methoxyphenyl)-2,5-dioxopyrrolidin-3-yl]glycinate] | 0.60 | hyperbolic mixed inhibitors with uncompetitive character | 0.31±0.06 | 0.31±0.06 | 1100 ± 200 | 0 | n.i. | 0.02 | ineffective | 101 ± 3 | 1.04 |  |  | α (coefficient, effect of modifier on the affinity for the substrate) ([1]; listed as compound 8): < 1; β (coefficient, effect of modifier on the catalytic rate) ([1]; listed as compound 8): < 1 |
| O=C(Nc1ccc(C(=O)O)c(O)c1)c1ccccc1 [Compound 3, N-Benzoyl-p-aminosalicylic acid] | 0.42 |  | 1.7±0.5 |  | 110 ± 20 | 0 | n.i. | 0.26 |  | 86 ± 4 |  |  |  |  |
| O=C(O)C(Cc1ccccc1-c1ccccc1)C(=O)O [Compound 4, (2-Biphenylylmethyl) malonic acid] | 0.70 | hyperbolic mixed modifiers with a dual behavior as inhibitors or activators depending on substrate concentration | 5.6±1.2 | 1.5±0.3 | 100 ± 40 | 0 | n.i. | 0.41 |  | 90 ± 3 |  |  |  | α (coefficient, effect of modifier on the affinity for the substrate) ([1]; listed as compound 4): > 1; β (coefficient, effect of modifier on the catalytic rate) ([1]; listed as compound 4): > 1 |
| NCC1CCN(CCc2ccccc2)CC1 [Compound 6, 1-[1-(2-Phenylethyl)-4-piperidinyl]-methanamine] | 0.65 | hyperbolic competitive inhibitor | 3.0±0.2 | 1 | 270 ± 50 | 0 | n.i. | 0.18 |  | 77 ± 8 | 0.77 | about 4 fold | 1100 ± 240 |  |
